From ChEMBL document CHEMBL1201862, “PubChem BioAssay data set” (2004)
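Where inhibition never reached the appropriate level, the endpoint shown equals the highest concentration tested. Otherwise, values were interpolated linearly from a five-concentration, 48-hour dose response in 96-well plates. Abbreviation: GI50, concentration required for 50% inhibition of growth.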 Activity calls are given as the source filed them. No stated cut-off is given here; in the data, active = GI50 up to about 1.1 µM and inactive = higher.

Key:
Assay in all cases: NCI tumour cell line growth inhibition, 48 h
HOP-92 = test system: HOP-92
MDA-MB-435 = test system: MDA-MB-435
HOP-62 = test system: HOP-62
MDA-MB-231 = test system: MDA-MB-231
MDA-N = test system: MDA-N
LOX IMVI = test system: LOX IMVI
HT-29 = test system: HT-29
TK-10 = test system: TK-10
DU-145 = test system: DU-145
SK-MEL-5 = test system: SK-MEL-5
MOLT-4 = test system: MOLT-4
NCI/ADR-RES = test system: NCI/ADR-RES
A549 = test system: A549
M14 = test system: M14
SF-295 = test system: SF-295
OVCAR-4 = test system: OVCAR-4
HCC 2998 = test system: HCC 2998
MCF7 = test system: MCF7
SR = test system: SR
NCI-H23 = test system: NCI-H23
HCT-116 = test system: HCT-116
786-0 = test system: 786-0
COLO 205 = test system: COLO 205
ACHN = test system: ACHN
NCI-H522 = test system: NCI-H522
SK-MEL-2 = test system: SK-MEL-2
OVCAR-5 = test system: OVCAR-5
CCRF-CEM = test system: CCRF-CEM
KM12 = test system: KM12
HL-60 = test system: HL-60
OVCAR-3 = test system: OVCAR-3
EKVX = test system: EKVX
NCI-H226 = test system: NCI-H226
SK-OV-3 = test system: SK-OV-3
T47D = test system: T47D
IGROV-1 = test system: IGROV-1
UO-31 = test system: UO-31
A498 = test system: A498
NCI-H460 = test system: NCI-H460
UACC-257 = test system: UACC-257
UACC-62 = test system: UACC-62
RPMI-8226 = test system: RPMI-8226
BT-549 = test system: BT-549
Hs-578T = test system: Hs-578T
SK-MEL-28 = test system: SK-MEL-28
SF-539 = test system: SF-539
Malme-3M = test system: Malme-3M
U-251 = test system: U-251
HCT-15 = test system: HCT-15
OVCAR-8 = test system: OVCAR-8
PC-3 = test system: PC-3
SN12C = test system: SN12C
CAKI-1 = test system: CAKI-1
SNB-19 = test system: SNB-19
SF-268 = test system: SF-268
RXF 393 = test system: RXF 393
SW-620 = test system: SW-620
SNB-75 = test system: SNB-75
K562 = test system: K562

Measured: GI50

CC(=O)c1ccc(Nc2nc3ccccc3c3occc23)cc1
active: HL-60 0.036 µM
inactive: HOP-92 12.8 µM | MDA-MB-435 3.08 µM | HOP-62 12.4 µM | MDA-MB-231 13.1 µM | MDA-N 6.98 µM | LOX IMVI 9.57 µM | HT-29 4.16 µM | TK-10 7.1 µM | DU-145 16.6 µM | SK-MEL-5 12.1 µM | MOLT-4 1.85 µM | NCI/ADR-RES 11.9 µM | A549 11.1 µM | M14 14.1 µM | SF-295 6.31 µM | OVCAR-4 1.79 µM | HCC 2998 6.89 µM | MCF7 8.22 µM | SR 2.92 µM | NCI-H23 12.2 µM | HCT-116 11.4 µM | 786-0 5.6 µM | COLO 205 8.99 µM | ACHN 11.1 µM | NCI-H522 2.88 µM | SK-MEL-2 14.6 µM | OVCAR-5 36 µM | CCRF-CEM 10.5 µM | KM12 7.14 µM | OVCAR-3 14.9 µM | EKVX 15.9 µM | NCI-H226 17 µM | SK-OV-3 18.4 µM | T47D 5.94 µM | IGROV-1 9.06 µM | UO-31 20.4 µM | A498 2.99 µM | NCI-H460 4.71 µM | UACC-257 13.2 µM | UACC-62 10.7 µM | RPMI-8226 5.48 µM | BT-549 19.8 µM | Hs-578T 15.3 µM | SK-MEL-28 2.34 µM | SF-539 17.1 µM | Malme-3M 23.3 µM | U-251 18.8 µM | OVCAR-8 32.5 µM | PC-3 22.4 µM | SN12C 31.9 µM | CAKI-1 3.26 µM | SNB-19 34.8 µM | SF-268 14.1 µM
5.08 µM: HCT-15

CC(Br)CN(CC(C)Br)c1ccc2c(c1)Cc1ccccc1-2 (centres undefined)
13.1 µM: HCT-15
inactive: HOP-92 7.62 µM | MDA-MB-435 13.7 µM | HOP-62 11.7 µM | MDA-MB-231 13.9 µM | MDA-N 15.2 µM | LOX IMVI 8.11 µM | HT-29 13 µM | TK-10 12.3 µM | DU-145 11.1 µM | SK-MEL-5 12.7 µM | RXF 393 14.3 µM | MOLT-4 2.34 µM | NCI/ADR-RES 13.5 µM | A549 12.1 µM | M14 11.6 µM | SF-295 10.7 µM | OVCAR-4 13.1 µM | MCF7 6.49 µM | SR 1.76 µM | NCI-H23 12 µM | HCT-116 11.6 µM | 786-0 11.1 µM | COLO 205 14.5 µM | SW-620 14.2 µM | ACHN 6.64 µM | NCI-H522 6.9 µM | SK-MEL-2 15.7 µM | OVCAR-5 18.9 µM | CCRF-CEM 2.03 µM | KM12 16.5 µM | HL-60 1.73 µM | OVCAR-3 11.7 µM | EKVX 13.8 µM | SK-OV-3 16 µM | T47D 10.1 µM | IGROV-1 6.93 µM | UO-31 12.4 µM | A498 13 µM | NCI-H460 2.22 µM | UACC-257 14.1 µM | UACC-62 11.9 µM | RPMI-8226 3.27 µM | BT-549 16.7 µM | Hs-578T 13.4 µM | SK-MEL-28 18.9 µM | Malme-3M 11.7 µM | U-251 10.7 µM | SNB-75 12.2 µM | OVCAR-8 9.98 µM | PC-3 10.8 µM | SN12C 11.4 µM | K562 5.92 µM | CAKI-1 9.2 µM | SNB-19 13.6 µM | SF-268 10.2 µM

COc1cc(CSc2ccc(O)cc2)cc(OC)c1OC
25.5 µM: HCT-15
inactive: HOP-92 19.3 µM | MDA-MB-435 27.6 µM | HOP-62 49.7 µM | MDA-MB-231 43.2 µM | MDA-N 30.5 µM | LOX IMVI 59.8 µM | HT-29 50.4 µM | TK-10 75.2 µM | DU-145 53.2 µM | SK-MEL-5 18 µM | RXF 393 > 100 µM | MOLT-4 25.5 µM | NCI/ADR-RES 24.7 µM | A549 48.4 µM | M14 36.4 µM | SF-295 24.9 µM | MCF7 4.31 µM | SR 24.1 µM | NCI-H23 28.6 µM | HCT-116 53 µM | 786-0 55.3 µM | COLO 205 67.8 µM | SW-620 > 100 µM | ACHN 31.3 µM | NCI-H522 29.3 µM | SK-MEL-2 21 µM | OVCAR-5 52.1 µM | CCRF-CEM > 10 µM | KM12 30.2 µM | HL-60 20.4 µM | OVCAR-3 41.6 µM | EKVX 39.8 µM | NCI-H226 29 µM | SK-OV-3 62.2 µM | T47D 22.6 µM | IGROV-1 48.5 µM | UO-31 14.5 µM | A498 93.3 µM | NCI-H460 37.6 µM | UACC-257 39 µM | UACC-62 27.4 µM | RPMI-8226 21.3 µM | BT-549 16.4 µM | Hs-578T 41.3 µM | SK-MEL-28 76.7 µM | SF-539 53.3 µM | Malme-3M 27.5 µM | U-251 29.2 µM | SNB-75 23.1 µM | OVCAR-8 33.8 µM | PC-3 27.4 µM | SN12C 52.5 µM | K562 38 µM | CAKI-1 34.6 µM | SNB-19 34.6 µM | SF-268 53.3 µM

CC(C)(/N=N/C(C)(C)C(=N)N)C(=N)N
> 100 µM: HCT-15
inactive: HOP-92 > 100 µM | MDA-MB-435 > 100 µM | HOP-62 > 100 µM | MDA-MB-231 > 100 µM | MDA-N > 100 µM | LOX IMVI > 100 µM | HT-29 > 100 µM | TK-10 > 100 µM | DU-145 > 100 µM | SK-MEL-5 > 100 µM | RXF 393 > 100 µM | MOLT-4 > 100 µM | NCI/ADR-RES > 100 µM | A549 > 100 µM | M14 > 100 µM | SF-295 > 100 µM | OVCAR-4 > 100 µM | HCC 2998 > 100 µM | MCF7 > 100 µM | SR > 100 µM | NCI-H23 > 100 µM | HCT-116 > 100 µM | 786-0 > 100 µM | COLO 205 > 100 µM | SW-620 > 100 µM | ACHN > 100 µM | NCI-H522 > 100 µM | SK-MEL-2 > 100 µM | OVCAR-5 > 100 µM | KM12 > 100 µM | HL-60 > 100 µM | OVCAR-3 > 100 µM | EKVX > 100 µM | NCI-H226 > 100 µM | SK-OV-3 > 100 µM | T47D > 100 µM | IGROV-1 > 100 µM | UO-31 > 100 µM | A498 > 100 µM | NCI-H460 > 100 µM | UACC-257 > 100 µM | UACC-62 > 100 µM | RPMI-8226 > 100 µM | BT-549 > 100 µM | Hs-578T > 100 µM | SK-MEL-28 > 100 µM | SF-539 > 100 µM | U-251 > 100 µM | SNB-75 > 100 µM | OVCAR-8 > 100 µM | PC-3 > 100 µM | SN12C > 100 µM | K562 > 100 µM | CAKI-1 > 100 µM | SNB-19 > 100 µM | SF-268 > 100 µM

CCN(CC)CCNc1ccc2ncn3c4c(OC)cccc4c(=O)c1c23
3.85 µM: HCT-15
active: MOLT-4 0.912 µM | HCT-116 0.54 µM | SW-620 1.08 µM | OVCAR-3 0.863 µM
inactive: HOP-92 4.27 µM | MDA-MB-435 6.58 µM | HOP-62 6.67 µM | MDA-MB-231 7.55 µM | MDA-N 4.27 µM | HT-29 4.04 µM | TK-10 12.2 µM | DU-145 4.5 µM | SK-MEL-5 2.38 µM | RXF 393 2.45 µM | NCI/ADR-RES 1.79 µM | A549 4.12 µM | M14 6.34 µM | SF-295 10.4 µM | OVCAR-4 2.93 µM | HCC 2998 4.94 µM | MCF7 2.47 µM | SR 3.4 µM | NCI-H23 5.46 µM | 786-0 4.83 µM | COLO 205 1.91 µM | ACHN 3.38 µM | NCI-H522 4.4 µM | CCRF-CEM 1.73 µM | KM12 4.26 µM | EKVX 4.15 µM | NCI-H226 5.86 µM | SK-OV-3 10.9 µM | T47D 7.66 µM | IGROV-1 5.41 µM | UO-31 4.38 µM | A498 13.9 µM | NCI-H460 3 µM | UACC-257 21.1 µM | UACC-62 6.68 µM | BT-549 > 10 µM | Hs-578T 11.6 µM | SK-MEL-28 6.47 µM | SF-539 3.78 µM | Malme-3M 6.76 µM | U-251 4.89 µM | SNB-75 11.3 µM | OVCAR-8 6.38 µM | PC-3 3.97 µM | SN12C 2.93 µM | K562 2.67 µM | CAKI-1 4.89 µM | SNB-19 6.15 µM | SF-268 3.92 µM
